Patent US9918966B2, “Anti-cancer compositions and methods” (The Penn State Research Foundation, priority 2013, dated 2018)

Experiments:
1205 Lu melanoma cells [1] = assay: Western blot analysis; format: cell-based, human
From the text: (§1) Cell lysates are harvested and processed as described in Sharma A et al., Cancer Res 2006, 66:8200-9. […] Protein lysates are collected for Western blotting. Blots are probed with total and phospho-Akt (Ser473), phospho-PRAS40 (Thr246), phospho-Erk1/2 (Thr202/Tyr204), total and Phospho-Mek1/2 (Ser217) and cleaved PARP from Cell Signaling Technology (Danvers, Mass.). Total PRAS40 from Invitrogen (Carlsbad, Calif.). Total Erk, cyclin D1, p27, Alpha-enolase and secondary antibodies conjugated with horseradish peroxidase from Santa Cruz Biotechnology (Santa Cruz Biotechnology, Santa Cruz, Calif.). COX-1 and COX-2 antibodies were obtained from Cayman Chemical Company, Ann Arbor, Mich. Immunoblots are developed using the enhanced chemiluminescence detection system (Amersham Pharmacia Biotech, Piscataway, N.J.).

UACC 903 melanoma cells [2] = assay: Western blot analysis; format: cell-based, human
From the text: as §1

1205 Lu melanoma cells [3] = assay: Cell proliferation ELISA BrdU; format: cell-based, human; settings: 72 h, increasing concentrations
From the text: (§2) Data represent averages of at least 3 independent experiments; bars; S.E.M.
(§3) Percentage of proliferating and apoptotic cells are quantified by a colorimetric using cell proliferation ELISA BrdU kit (Roche Applied Sciences, Indianapolis, Ind.) and Apo-ONE Homogenous caspase-3/7 assay kit (Promega, Madison Wis.), as described in Sharma A, et al., Clin Cancer Res 2009; 15:1674-85; and Madhunapantula S V, et al., Mal Cancer Ther 2008; 7:1297-308.

UACC 903 melanoma cells [4] = assay: Cell proliferation ELISA BrdU; format: cell-based, human; settings: UACC 903, 72 h, increasing concentrations
From the text: as §2, §3

[5] = Toxicity assessments: blood markers and H&E of vital organs; format: in vivo
Description: Four to six week old athymic-Foxn1^nu nude mice (Harlan Sprague Dawley, IN), are treated with either vehicle control or selenocoxib-1-GSH (n=5) as described in tumor kinetics studies. At the end of treatment, blood is collected from each sacrificed animal in a plasma separator tube with lithium heparin (BD Microtainer) following cardiac puncture and analyzed for ALKP (Alkaline phosphatase), ALT (Alanine aminotransferase), AST (Aspartate aminotransferase), ALB (Total albumin), TBIL (Total bilirubin), CREA (Creatinine), BUN (Blood urea nitrogen), CHOL (Total cholesterol), TRIG (Total triglyceride) and GLU (Glucose) levels to ascertain possible liver, heart, kidney, and pancreas related toxicity. A portion of vital organs, liver, heart, kidney, pancreas, and spleen-from each animal is formalin-fixed and paraffin-embedded to examine toxicity-associated changes in cell morphology and tissue organization following H&E staining as described in Nguyen N, et al. Cancer Prev Res (Phila) 2011; 4: 248-58.

[6] = system: various cancer cell lines; assay: Killing of various cancer cell lines compared with normal fibroblast cells; format: cell-based, human; settings: MiaPaca-2, MDA-MB-231, PC-3, HT-1080, Caco2 versus normal fibroblast cells
From the text: (§4) Therapeutic universality of selenocoxib-1-GSH for killing cancer cells is examined by treating pancreatic (MiaPaca-2), breast (MDA-MB-231), prostate (PC-3) or sarcoma (HT-1080) and colon (Caco2) cell. lines with the drug and establishing the IC50 for each cell line, Table III. Selenocoxib-1-GSH kills the various cancer cell lines at 2-3-fold lower concentrations than normal fibroblast cells.

HT-1080 (Fibro sarcoma) = assay: IC50 for killing cancer cells; format: cell-based; settings: Homo sapiens
From the text: as §4

Caco-2 (Colon) = assay: IC50 for killing cancer cells; format: cell-based; settings: Homo sapiens
From the text: as §4

MiaPaca-2 (Pancreas) = assay: IC50 for killing cancer cells; format: cell-based; settings: Homo sapiens, MIA PaCa-2
From the text: as §4

MDA-MB-231 (Breast) = assay: IC50 for killing cancer cells; format: cell-based; settings: Homo sapiens
From the text: as §4

PC-3 (Prostate) = assay: IC50 for killing cancer cells; format: cell-based; settings: Homo sapiens
From the text: as §4

1205 Lu tumors = format: in vivo, athymic-Foxn1nu nude mice
Description: (§5) Tumor kinetics are measured by subcutaneous injection of 1×10^6 1205 Lu or UACC 903 cells in 0.2 mL of DMEM supplemented with 10% FBS subcutaneously injected above both left and right rib cages of 3- to 4-wk-old female athymic-Foxn1^nu nude mice (Harlan Sprague Dawley, IN).

UACC 903 tumors = format: in vivo, athymic-Foxn1nu nude mice
Description: as §5

Human recombinant COX-2 = biological target: T1, Human recombinant COX-2 (Homo sapiens, UniProt P35354); format: biochemical; settings: 0.2, 2.0 and 20 nM; DMSO = 100% activity; FIG. 2C
T1 construct: purchased Cayman Chemical, Ann Arbor, Mich
T1 sequence (P35354 18-604): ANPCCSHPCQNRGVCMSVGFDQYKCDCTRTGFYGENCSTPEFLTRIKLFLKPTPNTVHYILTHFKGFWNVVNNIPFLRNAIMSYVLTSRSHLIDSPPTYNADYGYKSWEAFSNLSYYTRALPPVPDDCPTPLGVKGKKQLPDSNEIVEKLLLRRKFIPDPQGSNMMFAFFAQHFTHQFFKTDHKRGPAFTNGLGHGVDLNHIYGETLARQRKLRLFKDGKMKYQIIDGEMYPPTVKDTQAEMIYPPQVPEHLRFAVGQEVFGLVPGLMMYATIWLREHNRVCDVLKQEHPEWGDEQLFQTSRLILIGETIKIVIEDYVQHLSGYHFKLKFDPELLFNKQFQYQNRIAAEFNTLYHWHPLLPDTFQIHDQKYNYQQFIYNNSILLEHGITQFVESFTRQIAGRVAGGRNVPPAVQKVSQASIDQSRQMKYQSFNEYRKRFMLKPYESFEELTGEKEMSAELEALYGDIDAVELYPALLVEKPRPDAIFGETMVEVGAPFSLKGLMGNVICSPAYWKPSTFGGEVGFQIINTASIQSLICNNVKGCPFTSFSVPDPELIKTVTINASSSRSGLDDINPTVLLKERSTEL

NC(CCC(=O)NC(CS[Se]Cc1cc(-c2ccccc2)n(-c2ccc(S(N)(=O)=O)cc2)n1)C(=O)NCC(=O)O)C(=O)O (centres unmarked) [Selenocoxib-1-GSH, selenocoxib-1-glutathione]
cleaved PARP protein (1205 Lu melanoma cells [1]): elevates levels of cleaved PARP protein | expression of cyclin-D1 (1205 Lu melanoma cells [1]): inhibits the expression of cyclin-D1 | levels of p27 (1205 Lu melanoma cells [1]): increases the levels of p27 | pErk1/2 levels (1205 Lu melanoma cells [1]; 15 and 20 μmol/L): increased pErk1/2 levels | pPRAS40 (1205 Lu melanoma cells [1]; 72 h): reduces expression | Akt phosphorylation (1205 Lu melanoma cells [1]; 72 h, increasing concentrations, compared to celecoxib): inhibited the Akt phosphorylation in a dose dependent manner | cleaved PARP protein (UACC 903 melanoma cells [2]; UACC 903): elevates levels of cleaved PARP protein | expression of cyclin-D1 (UACC 903 melanoma cells [2]; UACC 903): inhibits the expression of cyclin-D1 | levels of p27 (UACC 903 melanoma cells [2]; UACC 903): increases the levels of p27 | pErk1/2 levels (UACC 903 melanoma cells [2]; UACC 903, 15 and 20 μmol/L): increased pErk1/2 levels | pPRAS40 (UACC 903 melanoma cells [2]; UACC 903, 72 h): reduces expression | Akt phosphorylation (UACC 903 melanoma cells [2]; UACC 903, 72 h, increasing concentrations, compared to celecoxib): inhibited the Akt phosphorylation in a dose dependent manner | cell proliferation (BrdU incorporation) (1205 Lu melanoma cells [3]): reduces proliferation | cell proliferation (BrdU incorporation) (UACC 903 melanoma cells [4]): reduces proliferation | H&E stained tissue sections of liver, heart, lung, kidney or spleen ([5]; at the end of treatment, versus DMSO vehicle): no changes in the morphology or architecture | levels of blood markers for major organ related toxicity (ALKP, ALT, AST, ALB, TBIL, CREA, BUN, CHOL, TRIG, GLU) ([5]; mouse, in vivo): negligible differences compared to controls | lower concentrations killing cancer cell lines than normal fibroblast cells [6]: 2-3 fold | IC50 (HT-1080 (Fibro sarcoma)): 9.1 ± 1.89 µM | IC50 (Caco-2 (Colon)): 16.1 ± 0.87 µM | IC50 (MiaPaca-2 (Pancreas)): 13.3 ± 1.01 µM | IC50 (MDA-MB-231 (Breast)): 15.4 ± 2.51 µM | IC50 (PC-3 (Prostate)): 16.4 ± 2.11 µM | day from which a significant decrease in xenograft tumor development is observed (1205 Lu tumors; 1205 Lu tumors, compared to vehicle DMSO): 16 days | decrease in tumor volume (1205 Lu tumors; 1205 Lu, at the end of treatment, compared to controls): ≤ 70% | reduction of tumor development (1205 Lu tumors; 1205 Lu, 0.127 μmoles (10 ppm selenium) intraperitoneally on alternate days for 4 weeks, compared to DMSO control): 70.5% | decrease in tumor volume (UACC 903 tumors; UACC 903, at the end of treatment, compared to controls): ≤ 70% | reduction of tumor development (UACC 903 tumors; UACC 903, 0.127 μmoles (10 ppm selenium) intraperitoneally on alternate days for 4 weeks, compared to DMSO control): 52% | day from which a significant decrease in xenograft tumor development is observed (UACC 903 tumors; UACC 903 tumors, compared to vehicle DMSO): 22 days | COX-2 inhibitory activity (Human recombinant COX-2): retain COX-2 inhibitory activity
